Several values for one entry are separate records, joined by “and”; a condition that tells them apart may be missing. Equal entries are not always repeated.
Tested on: Pseudomonas aeruginosa (ATCC 15442) biofilm
Experiment: MBEC (minimum biofilm eradication concentration) test, Calgary Biofilm Device
Type: cell-based
Conditions: for MBEC, ppm as Br2, on 7-day old biofilm: one-hour biocide contact time, biofilm grown seven days in nutrient solution, halogen biocides expressed as Br2
From the text: The efficacy of this invention in eradicating (i.e. controlling) Pseudomonas aeruginosa biofilm of sufficient age such that it had developed an extracellular polysaccharide protective slime layer, was shown by a series of standard tests performed on our behalf at MBEC Biofilm Technologies, Inc., Calgary, Canada. The test procedure, developed at the University of Calgary, utilizes a device which allows the growth of 96 identical biofilms under carefully controlled conditions. The device consists of a two-part vessel comprised of an upper plate containing 96 pegs that seals against a bottom plate. The bottom plate can consist of either a trough (for biofilm growth) or a standard 96-well plate (for biocide challenge). The biofilms develop on the 96 pegs. The device has been used as a general method for evaluating the efficacy of antibiotics and biocides towards biofilms. See in this connection H. Ceri, et al., “The MBEC Test: A New In Vitro Assay Allowing Rapid Screening for Antibiotic Sensitivity of Biofilm”, Proceedings of the ASM, 1998,89,525; Ceri, et al., “Antifungal and Biocide Susceptibility testing of Candida Biofilms using the MBEC Device”, Proceedings of the Interscience Conference on Antimicrobial Agents and Chemotherapy, 1998, 38, 495; and H. Ceri, et al., “The Calgary Biofilm Device: A New Technology for the Rapid Determination of Antibiotic Susceptibility of Bacterial Biofilms”, Journal of Clinical Microbiology, 1999, 37, 1771-1776.
Six biocide systems were evaluated using the above test procedure and test equipment. Five of these systems were oxidizing biocides, viz., chlorine (from NaOCl), bromine (from NaOCl+NaBr), bromine and chlorine (from BCDMH), bromine (from sulfamate stabilized bromine chloride), and chlorine (from trichloroisocyanuric acid), all expressed as bromine (Br2) in mg/L, so that all test results were placed on the same basis. The sixth biocide was glutaraldehyde, a non-oxidizing biocide.
These biocide systems were used to challenge biofilms of Pseudomonas aeruginosa (ATCC 15442). This is a Gram (−) bacterium which is known to rapidly develop an extracellular polysaccharide slime layer, and is found in industrial and recreational water systems. See in this connection J. W. Costerton and H. Anwar, “Pseudomonas aeruginosa: The Microbe and Pathogen”, in Pseudomonas aeruginosa Infections and Treatment, A. L. Baltch and R. P. Smith editors, Marcel Dekker publishers, New York, 1994.
In the Table the MBEC (minimum biofilm eradication concentration) results presented are for the one-hour biocide contact time used in the test. The Psuedomonas aeurginosa colony was allowed to grow in contact with a nutrient solution for seven days. The values given for the halogen containing biocides are expressed in terms of mg/L of bromine as Br2. The data on the glutaraldehyde is in terms of mg/L as active ingredient. […]

[1] = average of the results, one-hour contact time, 7-day old biofilm, expressed as Br2

| SMILES | MBEC, avg. (average (est.), one-hour contact time, 7-day old biofilm, glutaraldehyde as active ingredient) | MBEC, on 7-day old biofilm (individual results, one-hour contact time, 7-day old biofilm, glutaraldehyde as active ingredient) | MBEC, avg. [1] | MBEC, ppm as Br2, on 7-day old biofilm (individual results) |
| --- | --- | --- | --- | --- |
| O=CCCCC=O [Glutaraldehyde, glutaraldehyde] | ~200 (est.) mg/L as active ingredient | 100 mg/L as active ingredient and > 200 mg/L as active ingredient |  |  |
| O=c1n(Cl)c(=O)n(Cl)c(=O)n1Cl [trichloroisocyanuric acid] |  |  | 20 ppm as Br2 | 20, 20 ppm as Br2 |
| CC1(C)C(=O)N(Cl)C(=O)N1Br [Bromine and chlorine (from BCDMH), N,N′-bromochloro-5,5-dimethylhydantoin] |  |  | 7.5 ppm as Br2 | 5 ppm as Br2 and 10 ppm as Br2 |

From patent US20020172720A1, “Control of pseudomonas aeruginosa” (priority 2001, published 2002)
